Measurements: ChEMBL document CHEMBL5727601, “Isoquinolones as BTK inhibitors” (2020)

Target: Tyrosine-protein kinase BTK (Homo sapiens, UniProt Q06187)
Test: Lanthscreen Eu Kinase Binding assay: A Lanthscreen Eu Kinase Binding assay (Life Technologies) was performed to quantitate the ability of test compounds to bind to BTK. The assay is based on the binding and displacement of Alexa Fluor647-labeled Kinase Tracer #236 to the ATP-binding site of human full length His-tagged BTK (Life Technologies cat # PV3587) with TR-FRET detection using a europium-labeled anti-His antibody. The assay was assembled in 384-well low volume NBS black plates (Corning) where 2 nM BTK and test compound in DMSO at varying concentrations were pre-incubated for 30 min at 28° C. in assay buffer consisting of 50 mM HEPES, pH 7.4, 10 mM MgCl2, 1 mM EGTA. 100 μM Na3VO4 and 0.01% Brij 35. Then, 2 nM of Eu-anti His antibody and 30 nM Kinase Tracer were added and incubated for […] at 28° C. Following incubation, TR-FRET signal was read on an Envision plate reader (Excitation: 340 nm; Emissions: 615 and 665 nm). The 665: 615 nm emission ratio was calculated and converted to POC compared to control and blank wells.

Sequence of Tyrosine-protein kinase BTK (Q06187 whole entry): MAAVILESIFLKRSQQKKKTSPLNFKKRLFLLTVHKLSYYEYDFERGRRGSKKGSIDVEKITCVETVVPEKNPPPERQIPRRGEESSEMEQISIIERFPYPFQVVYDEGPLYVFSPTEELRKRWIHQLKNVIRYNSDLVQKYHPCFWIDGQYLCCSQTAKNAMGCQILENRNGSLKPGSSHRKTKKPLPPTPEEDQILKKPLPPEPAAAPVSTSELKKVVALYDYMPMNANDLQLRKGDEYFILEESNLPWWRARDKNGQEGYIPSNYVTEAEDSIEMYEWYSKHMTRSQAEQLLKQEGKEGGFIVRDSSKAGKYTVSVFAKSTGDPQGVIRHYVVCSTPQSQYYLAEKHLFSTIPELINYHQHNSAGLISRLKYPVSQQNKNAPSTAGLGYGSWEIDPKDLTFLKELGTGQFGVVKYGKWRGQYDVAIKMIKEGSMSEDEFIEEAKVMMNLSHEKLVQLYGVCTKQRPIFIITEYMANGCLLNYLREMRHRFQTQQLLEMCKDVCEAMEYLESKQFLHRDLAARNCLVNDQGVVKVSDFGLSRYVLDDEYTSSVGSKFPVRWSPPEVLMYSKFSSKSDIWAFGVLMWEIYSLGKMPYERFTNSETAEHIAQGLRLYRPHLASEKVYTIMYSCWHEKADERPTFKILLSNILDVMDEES

IC50: 0.9 nM
SMILES: C=CC(=O)N1CC(c2cc3cc(C4CC4)ccc3c(=O)n2-c2cccc(-c3ccnc(N)c3)c2CO)C1
